Experimental data taken from patent US11571454B2, “Anticancer peptides that synergistically enhance chemotherapeutic potency” (The Penn State Research Foundation, priority 2017, dated 2023).
Marks after values point to notes of the source that are not given here.

Experiments:
[1] = test system: T24 (urinary bladder transitional cell carcinoma) cells; test: MTT cytotoxicity assay, T24
B. subtilis (168) = conditions: 24 hours, Gram Positive
M. tuberculosis = conditions: 24 hours, Mycobacteria
MS S. aureus = conditions: 24 hours, Gram Positive
[2] = test system: A549 (lung carcinoma) cells; test: MTT cytotoxicity assay, A549; type: cell-based, human
Description: All cells were cultured using standard culture conditions at 37° C., 5% CO2, and 95% humidity. A549 (CCL-185), OVCAR-3 (HTB-161), T24 (HTB-4), and NCI/ADR-RES were cultured in RPMI-1640 supplemented with 10% v/v fetal bovine serum (FBS), 2 mM L-glutamine (L-Gln), 10,000 units penicillin/mL, 10 mg/mL streptomycin, and 25 μg/mL amphotericin B. HUVEC (PCS-100-010) cells were cultured in Vascular Cell Basal Media (PCS-100-030) supplemented with an Endothelial Cell Growth Kit-VEGF (PCS-100-041) and 10 μg/mL gentamycin in culture flasks coated with 0.1% gelatin by incubating at 37° C. for 15 min. NL20 (CRL-2503) cells were cultured in Ham's F12 supplemented with 1.5 g/L sodium bicarbonate, 2.7 g/L glucose, 2.0 mM L-glutamine, 0.1 mM nonessential amino acids, 0.005 mg/ml insulin, 10 ng/ml epidermal growth factor, 0.001 mg/ml transferrin, 500 ng/ml hydrocortisone and 4% fetal bovine serum, as advised by American Type Culture Collection (ATCC).
Viability was calculated by comparing to an untreated control.
All experiments were performed with n>6.
Cell viability experiments were completed n>6 in two independent experiments and analyzed using GraphPad Prism 8 to fit curves and calculate IC50 values using inhibitor vs. normalized response non-linear regression model. IC50 values are reported as mean values±standard deviation. […] Pore size frequency distribution was completed by ImageJ FIJI on 4 independent cells and n=30 pores from SEM images. UV-Vis OD600 and CD spectra are means of 5 and 3 replicates, respectively and reported as mean±standard deviation. Individual UV-Vis and CD spectra, as well as fluorescent confocal and TEM micrographs, shown are representative plots from three individual experiments. CD data is with a variance in ellipticity of 0.2 millidegrees at each wavelength. Relative fluorescence data calculated from fluorescent confocal images represents the average of 10 independent measurements±standard deviation. For spheroid volume analysis, a Kruskal-Wallis test and Dunn's multiple comparisons test was performed using GraphPad Prism 8.

[3] = Liposome disruption (OD600), normal membrane model
Description: (§1) Liposomes were prepared by extrusion techniques according to previous methods. Briefly, all liposomes were prepared in 2×concentration (5 mM). Healthy and cancer liposomal mimicking membranes were prepared with 72:23:[…] phosphatidylcholine (POPC):phosphatidylethanolamine (DOPE):phosphatidylserine (POPS) lipids, respectively. The lipids dissolved in chloroform were mixed in proper molar proportions before being evaporated under a stream of argon. The lipid film was then dried completely by lyophilization overnight. […] The extruded liposomes were then dialyzed in 3500 MWCO dialysis cassettes against water. Parallel optical density experiments were conducted measuring the absorbance at 600 nm (OD600) to track the kinetics and specificity of membrane disruption. Measurements were taken every 30 seconds for the first 10 min., followed by measurements every minute until 15 min.

[4] = Liposome disruption (OD600), cancer membrane model; conditions: OD600 and visual flocculates
Description: as §1

[5] = test system: OVCAR-3 ovarian carcinoma cells

Substance: H-KRWHWWRRHWVVW-NH2 [MAD1]
- IC50 ([1]; read-out: Cancerous (IC50, μM) T24, 48 hours treatment, MTT): > 100 µM
- cytotoxic activity towards T24 ([1]; result in words): inactive
- MIC (μM) B. subtilis (168) (B. subtilis (168)): 0.2 µM
- MIC (μM) M. tuberculosis (M. tuberculosis): 2.5 µM
- MIC (μM) MS S. aureus (MS S. aureus): >80^a μM
- IC50 ([2]; 48 hours treatment, MTT, read-out: Cancerous (IC50, μM) A549): 36.2 µM
- Therapeutic Index A549 ([2]; IC50-HUVEC/IC50-A549): 2.8
- cytotoxic activity against A549 ([2]; result in words): moderate activity
- disruption/interaction with normal (healthy) membrane liposomes [3]: did not lyse
- disruption/lysis of cancer membrane liposomes [4]: significant membrane destabilization and subsequent lysis
- Therapeutic Index OVCAR-3 ([5]; IC50-HUVEC/IC50-OVCAR-3): 7
- IC50 ([5]; read-out: Cancerous (IC50, μM) OVCAR-3, 48 hours treatment, MTT): 14.2 µM
